Data on 31 compounds can be found in patent US11078168B2, “Substituted N-hydroxyamidinoheterocycles as modulators of indoleamine 2,3-dioxygenase” (PHENEX DISCOVERY VERWALTUNGS-GMBH, priority 2016, dated 2021).

SMILES strings stand for the structures.

T1 sequence (P14902 whole entry): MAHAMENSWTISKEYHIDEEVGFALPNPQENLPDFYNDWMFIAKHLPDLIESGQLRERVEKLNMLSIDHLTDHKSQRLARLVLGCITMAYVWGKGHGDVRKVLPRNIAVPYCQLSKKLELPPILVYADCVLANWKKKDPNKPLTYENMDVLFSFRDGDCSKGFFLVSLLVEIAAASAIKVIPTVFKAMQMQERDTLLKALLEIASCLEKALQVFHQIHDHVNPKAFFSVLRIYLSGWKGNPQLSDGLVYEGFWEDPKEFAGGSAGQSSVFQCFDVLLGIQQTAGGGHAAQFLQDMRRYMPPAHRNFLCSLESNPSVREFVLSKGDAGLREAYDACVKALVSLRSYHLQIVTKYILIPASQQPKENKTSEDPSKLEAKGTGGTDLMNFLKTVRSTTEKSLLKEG

This assay has as its target T1, Indoleamine 2,3-dioxygenase (Homo sapiens, UniProt P14902).
T1 construct: endogenous in cells; host or cells: SKOV-3 (ATCC HTB-77), stimulated with interferon gamma
Put plainly: SKOV-3 cellular Indoleamine 2,3-dioxygenase assay. Particulars: SKOV-3 cells, 50 ng/ml Interferon gamma, 100 μM L-Tryptophan, 24 hours, N-Formylkynurenin fluorescence detection; read-out: cell based activity. As to the method: SKOV-3 cellular Indoleamine 2,3-dioxygenase assay
SKOV-3 cells were obtained from the American Type Culture Collection (ATCC® HTB-77™) and maintained in McCoy's medium (Pan Biotech) supplemented with 10% fetal bovine serum and 1% Penicilin/Streptomycin. Cells were kept at 37° C. in a humidified incubator with 5% CO2. For assay preparation, cells were seeded at a density of 2*10^5/ml into black clear bottom 96 well plates in 100 μl medium/well supplemented with 50 ng/ml Interferon gamma (eBioscience, Thermo Fisher Scientific). After cells fully adhered to the plate, dilution series of compounds were added in medium containing additional L-Tryptophan to a final L-Tryptophan concentration of 100 μM. The cells were incubated for 24 hours. Detection of produced N-Formylkynurenin was performed by addition of 3-Methylpiperidine to a final concentration of 200 mM. The plates were sealed and heated to 65° C. for 20 minutes in a water bath. After cooling the fluorescence of each well was recorded with a Victor™X4 (PerkinElmer) plate reader at an emission wavelength of 535 nm and excitation at 405 nm (Tomek et al.; Anal Bioanal Chem (2013) 405:2515-2524., Tomek et al.; Biochim Biophys Acta. 2015 September; 1850(9):1772-80).
On to `Cn1nc(C(=O)NCCSc2nonc2C(=NO)Nc2ccc(F)c(Cl)c2)[nH]c1=O` [117/3], for which the IC50 was less than 100 nM.
To `O=C(NCCSc1nonc1C(=NO)Nc1ccc(F)c(Cl)c1)c1ccc(C(O)(C(F)(F)F)C(F)(F)F)cc1` [117/4] belongs 100 to 1000 nM; to `O=C(NCCSc1nonc1C(=NO)Nc1ccc(F)c(Cl)c1)c1ccc(C(=O)O)nc1` [117/5], more than 1000 nM; to `O=C(NCCSc1nonc1C(=NO)Nc1ccc(F)c(Cl)c1)c1nnc(C(F)(F)F)[nH]1` [117/6], 100 to 1000 nM.
To `Cc1nnc(C(=O)NCCSc2nonc2C(=NO)Nc2ccc(F)c(Cl)c2)o1` [117/7] belongs less than 100 nM.
Consider `NS(=O)(=O)c1ccc(C(=O)NCCSc2nonc2C(=NO)Nc2ccc(F)c(Cl)c2)cc1` [117/8], for which the IC50 is less than 100 nM.
To `NC(=O)c1ccc(C(=O)NCCSc2nonc2C(=NO)Nc2ccc(F)c(Cl)c2)cc1` [117/9] belongs less than 100 nM; to `CS(=O)(=O)Nc1ccc(C(=O)NCCSc2nonc2C(=NO)Nc2ccc(F)c(C(F)F)c2)cc1` [117/10], less than 100 nM.
`O=C(NCCSc1nonc1C(=NO)Nc1ccc(F)c(Cl)c1)c1ccc(NS(=O)(=O)C(F)(F)F)nc1` [117/11]: the IC50 is more than 1000 nM.
As to `NS(=O)(=O)CC(=O)NCCSc1nonc1/C(=N/O)Nc1ccc(F)c(C(F)F)c1` [117/12], the IC50 is less than 100 nM.
To `NS(=O)(=O)CC(=O)NCCSc1nonc1/C(=N/O)Nc1cccc(C(F)(F)F)c1` [117/13] belongs less than 100 nM.
To `NS(=O)(=O)c1ccc(C(=O)NCCSc2nonc2C(=NO)Nc2ccc(F)c(C(F)F)c2)cc1` [117/14] belongs less than 100 nM.
The figure for `NS(=O)(=O)c1ccc(C(=O)NCCSc2nonc2C(=NO)Nc2cccc(C(F)F)c2)cc1` [117/15] is less than 100 nM.
`Cn1nc(C(=O)NCCSc2nonc2C(=NO)Nc2ccc(F)c(C(F)(F)F)c2)[nH]c1=O` [117/16]: the IC50 was less than 100 nM.
On to `Cn1nc(C(=O)NCCSc2nonc2C(=NO)Nc2ccc(F)c(C(F)F)c2)[nH]c1=O` [117/17], for which the IC50 lay within 100 to 1000 nM.
In the case of `Cn1nc(C(=O)NCCSc2nonc2C(=NO)Nc2cccc(C(F)(F)F)c2)[nH]c1=O` [117/18], the IC50 fell in the range of 100 to 1000 nM.
Take `NS(=O)(=O)CC(=O)NCCSc1nonc1/C(=N/O)Nc1cccc(C(F)F)c1` [117/19]: the IC50 was less than 100 nM.
To `CC(C)(C)OC(=O)NC1(CC(=O)NCCSc2nonc2C(=NO)Nc2ccc(F)c(C(F)F)c2)COC1` [117/20] belongs less than 100 nM.
Turning to `NS(=O)(=O)C1(C(=O)NCCSc2nonc2C(=NO)Nc2ccc(F)c(C(F)F)c2)CC1` [117/21], the IC50 is less than 100 nM.
As for `NS(=O)(=O)CC(=O)NCCSc1nonc1C(=NO)Nc1cc(Br)c(F)cc1F` [117/22], the IC50 was less than 100 nM.
Consider `NS(=O)(=O)CC(=O)NCCSc1nonc1C(=NO)Nc1ccc(F)c(Br)c1F` [117/23], for which the IC50 is less than 100 nM.
On to `NS(=O)(=O)CC(=O)NCCSc1nonc1C(=NO)Nc1cc(F)c(F)c(Br)c1` [117/24], for which the IC50 is less than 100 nM.
As for `NC(=O)CC(=O)NCCSc1nonc1C(=NO)Nc1cccc(C(F)(F)F)c1` [119/1], the IC50 was less than 100 nM.
For `NC(=O)CC(=O)NCCSc1nonc1C(=NO)Nc1cccc(C(F)F)c1` [119/2], the IC50 is less than 100 nM.
To `NC(=O)CS(=O)(=O)NCCSc1nonc1C(=NO)Nc1ccc(F)c(C(F)F)c1` [119/3] belongs less than 100 nM; to `NC(=O)CS(=O)(=O)NCCSc1nonc1C(=NO)Nc1cccc(C(F)F)c1` [119/4], less than 100 nM.
To `NC(=O)CCS(=O)(=O)NCCSc1nonc1C(=NO)Nc1ccc(F)c(C(F)F)c1` [119/5] belongs less than 100 nM; to `NC(=O)CNS(=O)(=O)NCCSc1nonc1C(=NO)Nc1ccc(F)c(C(F)F)c1` [119/6], less than 100 nM.
To `CS(=N)(=O)NCCSc1nonc1C(=NO)Nc1ccc(F)c(C(F)F)c1` (stereo not shown) [120/1] belongs less than 100 nM.
As for `O=C(NCCSc1nonc1C(=NO)Nc1ccc(F)c(C(F)(F)F)c1)C1(O)CNC1` [123/1], the IC50 lay in the range of 100 to 1000 nM.
The figure for `COC1(C(=O)NCCSc2nonc2C(=NO)Nc2ccc(F)c(C(F)F)c2)CNC1` [123/2] is less than 100 nM.
